Read-outs that look alike come from different tables or passages of the source. Starred links: 1 amine or outer side, 2 acyl side, 3 side chain; linkers in the order of their positions; H or OH if unused. Non-standard residues stand in square brackets, D forms with d. Residues, ends and D or L forms follow the SMILES beside them. Groups on a side chain read outwards from the residue. *: point of attachment. C18 diacid = O=C(O)CCCCCCCCCCCCCCCCC(=O)*; γGlu = O=C(O)[C@H](CCC(=O)[*:2])N[*:1]; NMeY = CN[C@@H](Cc1ccc(O)cc1)C(=O)O; AEEA = NCCOCCOCC(=O)O; Aib = CC(C)(N)C(=O)O
Assays:
[1] = Human plasma protein binding (PPB); format: in vitro ADME; conditions: for fraction unbound: both sexes, pH 7.4, human plasma, 1000 nmol/L peptide, ultracentrifugation, read-out: Human PPB (FUplasma); for free unbound peptide in human plasma (in words): judged for once per week (QW) dosing
How it was run: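 Peptides spiked at 1000 nmol/L into pooled human K2-EDTA plasma adjusted to pH 7.4, incubated 30 min at 37 °C, then ultracentrifuged at ~450,000 g, 4 °C for 3 h. Fu derived from LC-MS/MS (MRM) peak area ratios, supernatant versus plasma.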

male ferrets = format: in vivo
Method: 1. Effect of subcutaneously administered GIP receptor agonist peptide in morphine-induced acute emetic model.
To evaluate the antiemetic effect, the GIP receptor agonist peptides other than natural human GIP are subcutaneously administered into male ferrets 24 hrs before morphine administration. Up to 60 minutes after morphine administration, the condition of the ferrets is monitored to record the frequencies and time points of abdominal contraction motions, vomiting behaviors, licking with the tongue, and fidgety behavior occurring. GIP receptor agonist peptide compounds of the present disclosure dosed at 0.3-10 nmol/kg attenuated the morphine (0.6 mg/kg, s.c.)-induced emesis in the ferrets.
GIP receptor agonist peptides are dissolved with a vehicle (0.09 w/v % tween 80/10% DMSO/saline), respectively, to prepare test solutions. […] of the test solutions and the vehicle are subcutaneously administered to ferrets (4 in each group), respectively. At the time of each of 4 or 24 hours after administration, 0.6 mg/kg of morphine is subcutaneously administered.

[2] = Dog plasma protein binding (PPB); format: in vitro ADME; conditions: pH 7.4; fraction unbound; dog serum; read-out: Dog PPB (FUplasma)
How it was run: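 Fraction unbound (Fu,plasma) is given as a percentage. It was measured with the method and analysis of the human protein-binding protocol, but using dog serum in place of human serum.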

physchem = experiment: physchem
How it was run: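 Solubility at pH 7.4 determined by stepwise addition of 200 mM phosphate buffer in 100 μL increments to 3 mg peptide, mixing briefly each time, until no insoluble material remained, then measured by liquid chromatography.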

[3] = Pharmacokinetics in dog after IV and SC dosing; conditions: in vivo; for half-life: IV 3 nmol/kg, read-out: IV T½ (converted); for MRT last: SC 3 nmol/kg, read-out: SC MRT 0-last
How it was run: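 Dogs were dosed IV or SC at 1 mL/kg with peptide at 3 nmol/mL in 10% DMSO/0.09% Polysorbate/PBS pH 7.4. K2-EDTA plasma was sampled to 336 h, and peptide was quantified by LCMS to derive half-life.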

C57BL/6J mice = experiment: Oral glucose tolerance test (OGTT); format: in vivo; conditions: 3 nmol/kg s.c., 24 hours before glucose loading
How it was run: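 Peptide or vehicle given s.c. at 0.1, 0.3, 3 or 10 nmol/kg (peptide-dependent), 24 h before oral 50% dextrose at 5 ml/kg unless stated otherwise. Blood glucose read at 0, 15, 30 and 60 min. % inhibition = (1−(AUC cpd−AUC naïve)/(AUC veh−AUC naïve))×100.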

human GLP-1R = molecular target: T1, human GLP-1R (Homo sapiens, UniProt P43220); experiment: Human GLP1R agonist activity, intracellular cAMP accumulation; format: cell-based; conditions: HEK-293T cells overexpressing human GLP-1R, 1 hr, read-out: Human GLP1R cAMP EC50, HEK293T
T1 construct: HEK-293T cells overexpressing full-length human GLP-1R; FLAG (N); host or cells: HEK-293T
T1 sequence (P43220 24-463): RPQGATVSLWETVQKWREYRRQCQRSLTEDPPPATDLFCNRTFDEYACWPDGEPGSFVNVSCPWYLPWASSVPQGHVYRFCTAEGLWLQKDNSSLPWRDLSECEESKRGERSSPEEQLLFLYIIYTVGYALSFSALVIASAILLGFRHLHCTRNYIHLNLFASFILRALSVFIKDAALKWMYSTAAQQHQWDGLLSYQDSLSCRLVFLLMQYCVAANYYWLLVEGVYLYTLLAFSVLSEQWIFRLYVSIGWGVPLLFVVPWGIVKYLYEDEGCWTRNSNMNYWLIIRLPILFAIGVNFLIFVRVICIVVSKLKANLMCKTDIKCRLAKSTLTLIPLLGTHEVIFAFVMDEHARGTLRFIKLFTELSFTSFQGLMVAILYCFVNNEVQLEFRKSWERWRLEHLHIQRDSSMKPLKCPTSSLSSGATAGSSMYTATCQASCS
How it was run: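 cAMP accumulation is measured by HTRF after a 1 hr, room-temperature, dark exposure of thawed cells (4×10^5 cells/mL in Krebs Ringer buffer) to compound. Activity is scaled between DMSO alone as 0% and 1 nm GLP-1 as 100%.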

female beagle dogs = experiment: PYY-1119-induced vomiting in dogs; format: in vivo; conditions: 3 nmol/kg s.c., 72 hours post-dose (lower line)
Method: The GIPR agonist peptide compounds of the present disclosure or vehicle (0.09% [w/v] Tween 80/10% DMSO/PBS) were administered subcutaneously (sc) at 3-10 nmol/kg to female beagle dogs (10 months old), followed by sc injections with Y2R agonist ((4-imidazolecarbonyl-Ser-D-Hyp-Iva-Pya(4)-Cha-Leu(Me)-Asn-Lys-Aib-Thr-Arg-Gln-Arg-Cha-NH2), […]), […]) at 1 hour or specified hours in the table postdose. Emetic episodes were counted for 2 hours after administration (by blinded analysis).

Dogs = format: in vivo; conditions: 10 nmol/kg s.c.
Method: Dogs are transferred to an observation cage (700 mm W×700 mm D×700 mm H [W×D×H], without food) on 1 day before each apomorphine challenge. The dogs are weighed by using an electronic balance then test peptide compounds and vehicle will be administrated via the subcutaneous route. Apomorphine is challenged at 8 hr after the administration and emetic events will be monitored for 1 h by video recording. The second apomorphine challenge will be 72 hr after the administration and emetic events will be recorded by the same protocol. Emesis symptoms are continuously recorded using a video camera and stored on a blue ray disc. Observation of symptoms include retching (a rhythmic contraction of the abdomen) and vomiting (vomiting behavior, including the elimination of vomitus or similar behavior). Besides, the combination of retching and vomiting is defined as emesis, and the number of episodes, latency (time elapsed from morphine administration until the onset of the first emesis symptom), duration (time elapsed between the onset of the first and final episodes of emesis), and frequency (number of animals showing emesis/number of experimental animals) of each of these symptoms is calculated. The latency in cases where emesis symptoms are not noted is taken as the maximum value (1 h for apomorphine challenge) at the end of observation. When the duration of the emesis symptoms is less than 1 min, the duration is recorded, for convenience, as 1 min.

| Structure (SMILES) | fraction unbound [1] | free unbound peptide in human plasma (in words) [1] | % inhibition of emetic events at doses (nmol/kg) and timepoints shown in ferret morphine model (male ferrets; in vivo, sc, 24 h) | fraction unbound [2] | solubility (physchem; pH 7.4) | solubility (physchem; pH 7.4, aqueous buffer) | half-life [3] | MRT last [3] | Oral Glucose Tolerance Test Percent decrease in blood glucose AUC (%) over 60 mins (C57BL/6J mice) | % inhibition of emetic events at doses (nmol/kg) and timepoints shown in ferret morphine model (male ferrets; 24 hrs, 1 nmol/kg s.c.) | effect on morphine-induced emesis in ferrets (in words) (male ferrets; morphine 0.6 mg/kg s.c., peptides dosed at 0.3-10 nmol/kg s.c.) | EC50 (human GLP-1R) | Inhibition (%) of PYY-1119-induced emetic event (female beagle dogs) | % inhibition of emetic events at doses (nmol/kg) shown in dog apomorphine model (Dogs; after 8 hrs (upper)) | % inhibition of emetic events at doses (nmol/kg) shown in dog apomorphine model (Dogs; after 72 hours (lower)) | solubility (physchem; pH 7.4, aqueous buffer, pH 7.4 Phosphate Buffer - Solubility, 200 mM Phosphate buffer pH 7.4) | solubility (physchem; pH 7.4, solubility in phosphate buffer at pH 7.4, 200 mM phosphate buffer pH 7.4) |
| --- | --- | --- | --- | --- | --- | --- | --- | --- | --- | --- | --- | --- | --- | --- | --- | --- | --- |
| CC[C@H](C)[C@H](NC(=O)[C@H](Cc1ccccc1)NC(=O)[C@@H](NC(=O)CNC(=O)[C@H](CCC(=O)O)NC(=O)C(C)(C)NC(=O)[C@H](Cc1ccc(O)cc1)NC)[C@@H](C)O)C(=O)N[C@@H](CO)C(=O)N[C@@H](CC(=O)O)C(=O)N[C@@H](Cc1ccc(O)cc1)C(=O)N[C@@H](CO)C(=O)N[C@H](C(=O)NC(C)(C)C(=O)N[C@@H](CC(C)C)C(=O)N[C@@H](CC(=O)O)C(=O)N[C@@H](CCCNC(=N)N)C(=O)NC(C)(C)C(=O)N[C@@H](C)C(=O)N[C@@H](CCC(N)=O)C(=O)NC(C)(C)C(=O)N[C@@H](CCCCNC(=O)COCCOCCNC(=O)COCCOCCNC(=O)CC[C@H](NC(=O)CC[C@H](NC(=O)CCCCCCCCCCCCCCCCC(=O)O)C(=O)O)C(=O)O)C(=O)N[C@@H](Cc1ccccc1)C(=O)N[C@H](C(=O)N[C@@H](CC(N)=O)C(=O)N[C@@H](Cc1c[nH]c2ccccc12)C(=O)N[C@@H](CC(C)C)C(=O)N[C@@H](CC(C)C)C(=O)N[C@@H](C)C(=O)N[C@@H](CCC(N)=O)C(=O)N[C@@H](CCCNC(=N)N)C(=O)NCC(=O)O)C(C)C)[C@@H](C)CC [Compound 72, Me-Y-Aib-E-G-T-F-I-S-D-Y-S-I-Aib-L-D-R-Aib-A-Q-Aib-Km-F-V-N-W-L-L-A-Q-R-G-OH] (H-[NMeY][Aib]EGTFISDYSI[Aib]LDR[Aib]AQ[Aib]K([AEEA-AEEA-γGlu-γGlu-C18 diacid])FVNWLLAQRG-OH) | 0.0036 | optimum free unbound peptide | 100% (3 nmol/kg); 100% | 0.0062 | ≥ 15 mg/mL | ≥ 60 mg/mL | 92 h | 125 h |  |  |  |  |  |  |  |  |  |
| CC[C@H](C)[C@H](NC(=O)[C@H](CO)NC(=O)[C@H](Cc1ccc(O)cc1)NC(=O)[C@H](CC(=O)O)NC(=O)[C@H](CO)NC(=O)[C@@H](NC(=O)[C@H](Cc1ccccc1)NC(=O)[C@@H](NC(=O)CNC(=O)[C@H](CCC(=O)O)NC(=O)C(C)(C)NC(=O)[C@H](Cc1ccc(O)cc1)NC)[C@@H](C)O)[C@@H](C)CC)C(=O)N[C@@H](C)C(=O)N[C@@H](CCCCNC(=O)CNC(=O)CNC(=O)CNC(=O)CNC(=O)CNC(=O)CCCCCCCCCCCCCCCCC(=O)O)C(=O)N[C@@H](CC(=O)O)C(=O)N[C@@H](CCCNC(=N)N)C(=O)NC(C)(C)C(=O)N[C@@H](C)C(=O)N[C@@H](CCC(N)=O)C(=O)NC(C)(C)C(=O)N[C@@H](CC(=O)O)C(=O)N[C@@H](Cc1ccccc1)C(=O)N[C@H](C(=O)N[C@@H](CC(N)=O)C(=O)N[C@@H](Cc1c[nH]c2ccccc12)C(=O)N[C@@H](CC(C)C)C(=O)N[C@@H](CC(C)C)C(=O)N[C@@H](C)C(=O)N[C@@H](CCC(N)=O)C(=O)N[C@@H](CO)C(=O)N1CCC[C@H]1C(=O)NCC(=O)O)C(C)C [Compound 84, Me-Y-Aib-E-G-T-F-I-S-D-Y-S-I-A-Km-D-R-Aib-A-Q-Aib-D-F-V-N-W-L-L-A-Q-S-P-G-OH] | 0.0009 | optimum free unbound peptide |  | 0.0003 | ≥ 15 mg/mL | ≥ 60 mg/mL | 62 h | 82 h | 72% (3 nmol/kg) | 24 hrs: 65% (1 nmol/kg); | effective in completely inhibiting the frequency of emesis | 58.9 nM |  |  |  |  |  |
| CC[C@H](C)[C@H](NC(=O)[C@H](Cc1ccccc1)NC(=O)[C@@H](NC(=O)CNC(=O)[C@H](CCC(=O)O)NC(=O)C(C)(C)NC(=O)[C@H](Cc1ccc(O)cc1)NC)[C@@H](C)O)C(=O)N[C@@H](CO)C(=O)N[C@@H](CC(=O)O)C(=O)N[C@@H](Cc1ccc(O)cc1)C(=O)N[C@@H](CO)C(=O)N[C@H](C(=O)NC(C)(C)C(=O)N[C@@H](CCCCNC(=O)CNC(=O)CNC(=O)CNC(=O)CNC(=O)CNC(=O)CCCCCCCCCCCCCCCCC(=O)O)C(=O)N[C@@H](CC(=O)O)C(=O)N[C@@H](CCCNC(=N)N)C(=O)NC(C)(C)C(=O)N[C@@H](C)C(=O)N[C@@H](CCC(N)=O)C(=O)NC(C)(C)C(=O)N[C@@H](CC(=O)O)C(=O)N[C@@H](Cc1ccccc1)C(=O)N[C@H](C(=O)N[C@@H](CCC(=O)O)C(=O)N[C@@H](Cc1c[nH]c2ccccc12)C(=O)N[C@@H](CC(C)C)C(=O)N[C@@H](CC(C)C)C(=O)N[C@@H](C)C(=O)N[C@@H](CCC(N)=O)C(=O)N[C@@H](CCCNC(=N)N)C(=O)NCC(=O)O)C(C)C)[C@@H](C)CC [Compound 108] |  |  |  |  | ≥ 15 mg/mL | ≥ 60 mg/mL |  |  | 65% (3 nmol/kg) |  |  | 41.7 nM | 96% (3 nmol/kg) | 50% (10 nmol/kg) | 54% (10 nmol/kg) |  |  |
| CC[C@H](C)[C@H](NC(=O)[C@H](CCCNC(=N)N)NC(=O)[C@H](CC(=O)O)NC(=O)[C@H](CCCCNC(=O)CNC(=O)CNC(=O)CNC(=O)CNC(=O)CNC(=O)CCCCCCCCCCCCCCCCC(=O)O)NC(=O)[C@H](C)NC(=O)[C@@H](NC(=O)[C@H](CO)NC(=O)[C@H](Cc1ccc(O)cc1)NC(=O)[C@H](CC(=O)O)NC(=O)[C@H](CO)NC(=O)[C@@H](NC(=O)[C@H](Cc1ccccc1)NC(=O)[C@@H](NC(=O)CNC(=O)[C@H](CCC(=O)O)NC(=O)C(C)(C)NC(=O)[C@H](Cc1ccc(O)cc1)NC)[C@@H](C)O)[C@@H](C)CC)[C@@H](C)CC)C(=O)N[C@@H](C)C(=O)N[C@@H](CCC(N)=O)C(=O)N[C@@H](CCCNC(=N)N)C(=O)N[C@@H](CC(N)=O)C(=O)N[C@@H](Cc1ccccc1)C(=O)N[C@H](C(=O)N[C@@H](CCC(=O)O)C(=O)N[C@@H](Cc1c[nH]c2ccccc12)C(=O)N[C@@H](CC(C)C)C(=O)N[C@@H](CC(C)C)C(=O)N[C@@H](C)C(=O)N[C@@H](CCC(N)=O)C(=O)N[C@@H](CO)C(=O)N1CCC[C@H]1C(=O)N[C@@H](CO)C(=O)N[C@@H](CO)C(=O)NCC(=O)N[C@@H](C)C(=O)N1CCC[C@H]1C(=O)N1CCC[C@H]1C(=O)N1CCC[C@H]1C(=O)N[C@@H](CO)C(=O)O)C(C)C [Compound 179] |  |  |  |  |  |  |  |  | 58% (3 nmol/kg) |  |  |  | 45% (3 nmol/kg) |  |  | ≥ 30 mg/mL | ≥ 15 mg/mL |

— patent US20230143604A1, “QW DOSING OF GIP RECEPTOR AGONIST PEPTIDE COMPOUNDS AND USES THEREOF” (TAKEDA PHARMACEUTICAL COMPANY LIMITED, priority 2020, published 2023)
